Results taken from patent US20080312255A1 (ASTRAZENECA AB, priority 2007, published 2008).
In brackets after ≈: the same amount, converted by molar mass.

Experiments:
[1] = molecular target: S. aureus GyrB ATPase (Staphylococcus aureus, UniProt P0A0K8); test: S. aureus GyrB ATPase inhibition (ammonium molybdate/malachite green phosphate detection); assay type: biochemical; settings: for inhibition at 1 µM: compound concentration of 1 μM
Outline: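 E. coli GyrA and S. aureus GyrB (250 pM each) with sheared salmon sperm DNA and 250 μM ATP, pH 7.5 Hepes buffer. Released phosphate detected by malachite green/ammonium molybdate at 650 nm; percent inhibition at 1 μM compound unless noted, normalized to 2% DMSO (0%) and EDTA (100%) controls.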

[2] = test system: Streptococcus pneumoniae; test: Bacterial susceptibility testing in liquid media (MIC); assay type: cell-based; settings: 37° C., 24 hrs, lowest concentration reducing growth by 80% or more, read-out: MIC against Streptococcus pneumoniae
Source text: Compounds may be tested for antimicrobial activity by susceptibility testing in liquid media. Compounds may be dissolved in dimethylsulfoxide and tested in 10 doubling dilutions in the susceptibility assays. The organisms used in the assay may be grown overnight on suitable agar media and then suspended in a liquid medium appropriate for the growth of the organism. The suspension can be a 0.5 McFarland and a further 1 in 10 dilution can be made into the same liquid medium to prepare the final organism suspension in 100 μL. Plates can be incubated under appropriate conditions at 37° C. for 24 hrs prior to reading. The Minimum Inhibitory Concentration (MIC) may be determined as the lowest drug concentration able to reduce growth by 80% or more.

Sequence of S. aureus GyrB ATPase (P0AES4 whole entry): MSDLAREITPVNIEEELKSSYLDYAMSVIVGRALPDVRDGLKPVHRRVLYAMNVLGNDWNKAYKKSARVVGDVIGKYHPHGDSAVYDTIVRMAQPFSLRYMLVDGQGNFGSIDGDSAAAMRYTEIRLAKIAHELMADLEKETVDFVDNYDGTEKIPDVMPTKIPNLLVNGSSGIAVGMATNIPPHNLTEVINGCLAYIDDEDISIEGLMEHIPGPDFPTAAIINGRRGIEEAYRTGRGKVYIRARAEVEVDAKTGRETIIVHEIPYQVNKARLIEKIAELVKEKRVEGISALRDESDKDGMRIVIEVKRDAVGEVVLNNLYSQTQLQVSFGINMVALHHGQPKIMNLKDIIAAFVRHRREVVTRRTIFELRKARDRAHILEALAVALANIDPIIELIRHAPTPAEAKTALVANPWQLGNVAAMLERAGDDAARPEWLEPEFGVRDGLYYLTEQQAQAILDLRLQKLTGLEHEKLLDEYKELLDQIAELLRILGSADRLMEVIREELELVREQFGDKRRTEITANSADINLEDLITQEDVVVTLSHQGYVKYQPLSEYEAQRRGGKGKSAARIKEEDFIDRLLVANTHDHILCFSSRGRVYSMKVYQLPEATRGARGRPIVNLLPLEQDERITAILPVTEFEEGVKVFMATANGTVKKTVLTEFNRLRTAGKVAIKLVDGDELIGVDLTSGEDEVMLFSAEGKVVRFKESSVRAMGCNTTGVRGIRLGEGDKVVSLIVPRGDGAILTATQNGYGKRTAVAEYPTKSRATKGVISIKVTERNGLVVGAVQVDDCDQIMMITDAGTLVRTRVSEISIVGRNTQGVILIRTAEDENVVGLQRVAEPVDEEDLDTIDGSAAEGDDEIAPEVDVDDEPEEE
Sequence of S. aureus GyrB ATPase (P0A0K8 whole entry): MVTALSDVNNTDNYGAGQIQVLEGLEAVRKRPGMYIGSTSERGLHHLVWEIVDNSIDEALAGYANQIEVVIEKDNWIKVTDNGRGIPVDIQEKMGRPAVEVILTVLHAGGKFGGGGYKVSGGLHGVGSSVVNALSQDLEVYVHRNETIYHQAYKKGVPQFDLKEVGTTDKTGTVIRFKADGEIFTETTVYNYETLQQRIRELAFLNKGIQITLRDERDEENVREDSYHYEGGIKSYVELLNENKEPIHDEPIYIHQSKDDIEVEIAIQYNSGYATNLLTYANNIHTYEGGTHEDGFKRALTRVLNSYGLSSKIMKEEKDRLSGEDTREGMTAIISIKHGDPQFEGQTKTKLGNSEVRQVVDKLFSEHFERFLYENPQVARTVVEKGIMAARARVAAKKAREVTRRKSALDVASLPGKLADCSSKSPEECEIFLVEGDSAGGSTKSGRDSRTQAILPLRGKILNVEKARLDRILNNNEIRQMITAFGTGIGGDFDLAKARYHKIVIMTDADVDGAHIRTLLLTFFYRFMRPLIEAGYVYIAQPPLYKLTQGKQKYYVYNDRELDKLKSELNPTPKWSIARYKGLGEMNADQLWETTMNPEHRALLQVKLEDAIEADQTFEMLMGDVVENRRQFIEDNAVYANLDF

| SMILES | inhibition at 1 µM [1] | MIC [2] | inhibition at 5 µM ([1]; compound tested at a concentration of 5 μM) |
| --- | --- | --- | --- |
| COc1cc(OC)nc(-c2nc(N3CC[C@@H](NC(=O)c4[nH]c(C)c(Cl)c4Cl)[C@@H](OC)C3)sc2C(=O)O)n1 [Example 11, 2-((3S,4R)-4-{[(3,4-Dichloro-5-methyl-1H-pyrrol-2-yl)carbonyl]amino}-3-methoxypiperidin-1-yl)-4-(4,6-dimethoxypyrimidin-2-yl)-1,3-thiazole-5-carboxylic acid] | 92% | 0.06 mg/L (≈ 0.105 µM) | – |
| CCCO[C@H]1CN(c2nc(-c3ncnn3C)c(C(=O)O)s2)CC[C@H]1NC(=O)c1[nH]c(C)c(Cl)c1Cl [Example 159, 2-[(3S,4R)-4-{[(3,4-dichloro-5-methyl-1H-pyrrol-2-yl)carbonyl]amino}-3-propoxypiperidin-1-yl]-4-(1-methyl-1H-1,2,4-triazol-5-yl)-1,3-thiazole-5-carboxylic acid] | 31% | – | – |
| CCCO[C@H]1CN(c2nc(-c3ncccc3F)c(C(=O)O)s2)CC[C@H]1NC(=O)c1[nH]c(C)c(Cl)c1Cl [Example 160, 2-[(3S,4R)-4-{[(3,4-dichloro-5-methyl-1H-pyrrol-2-yl)carbonyl]amino}-3-propoxypiperidin-1-yl]-4-(3-fluoropyridin-2-yl)-1,3-thiazole-5-carboxylic acid] | 4.5% | – | – |
| CCCO[C@H]1CN(c2nc(-c3cnccn3)c(C(=O)O)s2)CC[C@H]1NC(=O)c1[nH]c(C)c(Cl)c1Cl [Example 161, 2-[(3S,4R)-4-{[(3,4-dichloro-5-methyl-1H-pyrrol-2-yl)carbonyl]amino}-3-propoxypiperidin-1-yl]-4-(pyrazin-2-yl)-1,3-thiazole-5-carboxylic acid] | – | – | 14% |
